Reference: PubChem BioAssay AID1963840 (Molecular Pharmacology Branch, DTP, NCI, 2024)

Tested on: 695427-040-R-J1-PDC complex spheroid viability
Test: Anticancer human tumor 695427-040-R-J1-PDC patient-derived colon adenocarcinoma cell line growth inhibition [POLQ]
Conditions: for IC50: curve of first compound; for viability, T/C: stronger effect = lower value
In short: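 Patient-derived tumour cells were co-cultured with HUVEC and mesenchymal stem cells as multicellular spheroids at 37 °C. They were treated with POLQ inhibitors (novobiocin, ART-558, RP6685) alone or combined with other agents. Top concentrations were at or near clinical Cmax (otherwise 10 microM; SN-38 at 1 microM), decreasing in half-log steps.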

[1] = second compound 0.0316 µM, first compound 0.0316 µM
[2] = second compound 0.0316 µM, first compound 0.1 µM
[3] = second compound 0.0316 µM, first compound 0.316 µM
[4] = second compound 0.0316 µM, first compound 1 µM
[5] = second compound 0.0316 µM, first compound 3.16 µM
[6] = second compound 0.0316 µM, first compound 10 µM
[7] = second compound 0.1 µM, first compound 0.0316 µM
[8] = second compound 0.1 µM, first compound 0.1 µM
[9] = second compound 0.1 µM, first compound 0.316 µM
[10] = second compound 0.1 µM, first compound 1 µM
[11] = second compound 0.1 µM, first compound 3.16 µM
[12] = second compound 0.1 µM, first compound 10 µM
[13] = second compound 0.316 µM, first compound 0.0316 µM
[14] = second compound 0.316 µM, first compound 0.1 µM
[15] = second compound 0.316 µM, first compound 0.316 µM
[16] = second compound 0.316 µM, first compound 1 µM
[17] = second compound 0.316 µM, first compound 3.16 µM
[18] = second compound 0.316 µM, first compound 10 µM
[19] = second compound 1 µM, first compound 0.0316 µM
[20] = second compound 1 µM, first compound 0.1 µM
[21] = second compound 1 µM, first compound 0.316 µM
[22] = second compound 1 µM, first compound 1 µM
[23] = second compound 1 µM, first compound 3.16 µM
[24] = second compound 1 µM, first compound 10 µM
[25] = second compound 3.16 µM, first compound 0.0316 µM
[26] = second compound 3.16 µM, first compound 0.1 µM
[27] = second compound 3.16 µM, first compound 0.316 µM
[28] = second compound 3.16 µM, first compound 1 µM
[29] = second compound 3.16 µM, first compound 3.16 µM
[30] = second compound 3.16 µM, first compound 10 µM
[31] = second compound 10 µM, first compound 0.0316 µM
[32] = second compound 10 µM, first compound 0.1 µM
[33] = second compound 10 µM, first compound 0.316 µM
[34] = second compound 10 µM, first compound 1 µM
[35] = second compound 10 µM, first compound 3.16 µM
[36] = second compound 10 µM, first compound 10 µM
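Note: spheroids exposed to compounds for seven days.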
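Throughout, for viability, T/C: 100% = DMSO vehicle control viability.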

SMILES: C#Cc1c(F)ccc2cc(O)cc(-c3ncc4c(N5CC6CCC(C5)N6)nc(OCC56CCCN5CC(F)C6)nc4c3F)c12 (stereo not drawn) + Cc1cccc(N(C)C(=O)C2C(O)CCN2c2nc(C)cc(C(F)(F)F)c2C#N)c1
- IC50 (second compound 0.0316 µM): > 10 µM
- IC50 (second compound 0.1 µM): > 10 µM
- IC50 (second compound 0.316 µM): > 10 µM
- IC50 (second compound 1 µM): > 10 µM
- IC50 (second compound 3.16 µM): > 10 µM
- IC50 (second compound 10 µM): > 10 µM
- viability, T/C [1]: 106%
- viability, T/C [2]: 99.3%
- viability, T/C [3]: 98%
- viability, T/C [4]: 104%
- viability, T/C [5]: 88.3%
- viability, T/C [6]: 86.9%
- viability, T/C [7]: 102%
- viability, T/C [8]: 100%
- viability, T/C [9]: 90.8%
- viability, T/C [10]: 96%
- viability, T/C [11]: 92.1%
- viability, T/C [12]: 78.8%
- viability, T/C [13]: 98.3%
- viability, T/C [14]: 99%
- viability, T/C [15]: 97.8%
- viability, T/C [16]: 104%
- viability, T/C [17]: 90.8%
- viability, T/C [18]: 80.6%
- viability, T/C [19]: 98%
- viability, T/C [20]: 92.4%
- viability, T/C [21]: 94.3%
- viability, T/C [22]: 92.1%
- viability, T/C [23]: 89.2%
- viability, T/C [24]: 83.2%
- viability, T/C [25]: 88.5%
- viability, T/C [26]: 94.3%
- viability, T/C [27]: 97%
- viability, T/C [28]: 90.4%
- viability, T/C [29]: 91%
- viability, T/C [30]: 76.1%
- viability, T/C [31]: 92.8%
- viability, T/C [32]: 84.7%
- viability, T/C [33]: 85.4%
- viability, T/C [34]: 84.7%
- viability, T/C [35]: 73.2%
- viability, T/C [36]: 61.5%

SMILES: CC1COCCN1c1cc(C2(O)CC3CCC(C2)O3)c2cnn(-c3ccn[nH]3)c2n1 (stereo not drawn) + Cc1cccc(N(C)C(=O)C2C(O)CCN2c2nc(C)cc(C(F)(F)F)c2C#N)c1
- IC50 (second compound 0.0316 µM): 6.2 µM
- IC50 (second compound 0.1 µM): 7.33 µM
- IC50 (second compound 0.316 µM): 6.13 µM
- IC50 (second compound 1 µM): 6.54 µM
- IC50 (second compound 3.16 µM): 4.63 µM
- IC50 (second compound 10 µM): 2.82 µM
- viability, T/C [1]: 102%
- viability, T/C [2]: 84.5%
- viability, T/C [3]: 76.9%
- viability, T/C [4]: 66%
- viability, T/C [5]: 52.5%
- viability, T/C [6]: 47.3%
- viability, T/C [7]: 102%
- viability, T/C [8]: 91.3%
- viability, T/C [9]: 85%
- viability, T/C [10]: 70.8%
- viability, T/C [11]: 55.9%
- viability, T/C [12]: 47.9%
- viability, T/C [13]: 109%
- viability, T/C [14]: 88.1%
- viability, T/C [15]: 80.6%
- viability, T/C [16]: 67.1%
- viability, T/C [17]: 58.4%
- viability, T/C [18]: 44%
- viability, T/C [19]: 100%
- viability, T/C [20]: 91.4%
- viability, T/C [21]: 82.6%
- viability, T/C [22]: 66.6%
- viability, T/C [23]: 56.8%
- viability, T/C [24]: 46.3%
- viability, T/C [25]: 96%
- viability, T/C [26]: 92.6%
- viability, T/C [27]: 73.8%
- viability, T/C [28]: 65.6%
- viability, T/C [29]: 53.8%
- viability, T/C [30]: 43.5%
- viability, T/C [31]: 93.3%
- viability, T/C [32]: 88.6%
- viability, T/C [33]: 70.3%
- viability, T/C [34]: 56.1%
- viability, T/C [35]: 51.5%
- viability, T/C [36]: 45.6%

SMILES: CC(=O)O[C@H]1C(=O)[C@@]2(C)[C@H]([C@H](OC(=O)c3ccccc3)[C@]3(O)C[C@H](OC(=O)[C@H](O)[C@@H](NC(=O)c4ccccc4)c4ccccc4)C(C)=C1C3(C)C)[C@]1(OC(C)=O)CO[C@@H]1C[C@@H]2O + Nc1ccc(C#CCN(C(=O)Cc2ncc(C(F)(F)F)cc2C(F)(F)F)c2ccc(F)cc2)nn1
- IC50 (second compound 0.0316 µM): > 3 µM
- IC50 (second compound 0.1 µM): > 3 µM
- IC50 (second compound 0.316 µM): > 3 µM
- IC50 (second compound 1 µM): > 3 µM
- IC50 (second compound 3.16 µM): > 3 µM
- IC50 (second compound 10 µM): > 3 µM
- viability, T/C (second compound 0.0316 µM, first compound 0.00949 µM): 98.2%
- viability, T/C (second compound 0.0316 µM, first compound 0.03 µM): 93.4%
- viability, T/C (second compound 0.0316 µM, first compound 0.0949 µM): 93.3%
- viability, T/C (second compound 0.0316 µM, first compound 0.3 µM): 97.1%
- viability, T/C (second compound 0.0316 µM, first compound 0.949 µM): 97.9%
- viability, T/C (second compound 0.0316 µM, first compound 3 µM): 81.2%
- viability, T/C (second compound 0.1 µM, first compound 0.00949 µM): 99.9%
- viability, T/C (second compound 0.1 µM, first compound 0.03 µM): 99.6%
- viability, T/C (second compound 0.1 µM, first compound 0.0949 µM): 91.8%
- viability, T/C (second compound 0.1 µM, first compound 0.3 µM): 91.5%
- viability, T/C (second compound 0.1 µM, first compound 0.949 µM): 89.5%
- viability, T/C (second compound 0.1 µM, first compound 3 µM): 79.7%
- viability, T/C (second compound 0.316 µM, first compound 0.00949 µM): 108%
- viability, T/C (second compound 0.316 µM, first compound 0.03 µM): 101%
- viability, T/C (second compound 0.316 µM, first compound 0.0949 µM): 88.4%
- viability, T/C (second compound 0.316 µM, first compound 0.3 µM): 91.6%
- viability, T/C (second compound 0.316 µM, first compound 0.949 µM): 88.9%
- viability, T/C (second compound 0.316 µM, first compound 3 µM): 90.3%
- viability, T/C (second compound 1 µM, first compound 0.00949 µM): 102%
- viability, T/C (second compound 1 µM, first compound 0.03 µM): 93.3%
- viability, T/C (second compound 1 µM, first compound 0.0949 µM): 102%
- viability, T/C (second compound 1 µM, first compound 0.3 µM): 99.3%
- viability, T/C (second compound 1 µM, first compound 0.949 µM): 90.9%
- viability, T/C (second compound 1 µM, first compound 3 µM): 78.8%
- viability, T/C (second compound 3.16 µM, first compound 0.00949 µM): 106%
- viability, T/C (second compound 3.16 µM, first compound 0.03 µM): 84.7%
- viability, T/C (second compound 3.16 µM, first compound 0.0949 µM): 95.1%
- viability, T/C (second compound 3.16 µM, first compound 0.3 µM): 90.5%
- viability, T/C (second compound 3.16 µM, first compound 0.949 µM): 88.2%
- viability, T/C (second compound 3.16 µM, first compound 3 µM): 86.8%
- viability, T/C (second compound 10 µM, first compound 0.00949 µM): 92.7%
- viability, T/C (second compound 10 µM, first compound 0.03 µM): 82.7%
- viability, T/C (second compound 10 µM, first compound 0.0949 µM): 86.7%
- viability, T/C (second compound 10 µM, first compound 0.3 µM): 91.2%
- viability, T/C (second compound 10 µM, first compound 0.949 µM): 90.2%
- viability, T/C (second compound 10 µM, first compound 3 µM): 86.4%

SMILES: COc1cccc2c1C(=O)c1c(O)c3c(c(O)c1C2=O)CC(O)(C(=O)CO)CC3OC1CC(N)C(O)C(C)O1 (stereo not drawn) + Nc1ccc(C#CCN(C(=O)Cc2ncc(C(F)(F)F)cc2C(F)(F)F)c2ccc(F)cc2)nn1
- IC50 (second compound 0.0316 µM): > 10 µM
- IC50 (second compound 0.1 µM): > 10 µM
- IC50 (second compound 0.316 µM): > 10 µM
- IC50 (second compound 1 µM): > 10 µM
- IC50 (second compound 3.16 µM): > 10 µM
- IC50 (second compound 10 µM): 3.38 µM
- viability, T/C [1]: 101%
- viability, T/C [2]: 90.9%
- viability, T/C [3]: 97.3%
- viability, T/C [4]: 78.2%
- viability, T/C [5]: 79.6%
- viability, T/C [6]: 71%
- viability, T/C [7]: 113%
- viability, T/C [8]: 95%
- viability, T/C [9]: 98.9%
- viability, T/C [10]: 80%
- viability, T/C [11]: 84.5%
- viability, T/C [12]: 64.6%
- viability, T/C [13]: 99.6%
- viability, T/C [14]: 99.8%
- viability, T/C [15]: 94.4%
- viability, T/C [16]: 83.7%
- viability, T/C [17]: 81.5%
- viability, T/C [18]: 68.3%
- viability, T/C [19]: 106%
- viability, T/C [20]: 89.5%
- viability, T/C [21]: 95.7%
- viability, T/C [22]: 81.8%
- viability, T/C [23]: 79.6%
- viability, T/C [24]: 58.6%
- viability, T/C [25]: 96.2%
- viability, T/C [26]: 92%
- viability, T/C [27]: 90.9%
- viability, T/C [28]: 77.8%
- viability, T/C [29]: 76.9%
- viability, T/C [30]: 51.6%
- viability, T/C [31]: 95.8%
- viability, T/C [32]: 84.3%
- viability, T/C [33]: 86.6%
- viability, T/C [34]: 68.7%
- viability, T/C [35]: 50.8%
- viability, T/C [36]: 35.3%
